Test results taken from patent US6852702B2, “9a-N-[N′-(phenylsulfonyl)carbamoyl] derivatives of 9-deoxo-9-dihydro-9a-aza-9a-homoerythromycin A and of 5-O-desosaminyl-9-deoxo-9-dihydro-9a-aza-9a-homoerythronolide A” (Pliva D.D., priority 2002, dated 2005).
Values after ≈ are worked out from the molar mass of the structure shown.

Test system: Streptococcus pneumoniae ATCC 6305
Assay: MIC by dilution method on microplates (NCCLS M7-A2)
Type: cell-based
Conditions: in vitro
Experimental: Minimal inhibitory concentrations (MIC, in μg/ml) are determined by dilution method on microplates according to recommendations of National Committee for Clinical Laboratory Standards (NCCLS, M7-A2). So e.g. the minimal inhibitory concentration on Streptococcus pneumoniae ATCC 6305 for the compounds from Examples 1 and 4 is 2 μg/ml and for compounds from Examples 2 and 3 is 1 μg/ml. Thus, they can be used for disinfection of rooms, surgical instruments and people as well as therapeutic agents in the treatment of infective diseases in animals, specially mammals, or humans that are caused by a wide spectrum of gram-positive bacteria, microorganisms or generally pathogenic microorganisms which are sensitive to the compounds of the formula 1. For this purpose the above compounds or their pharmaceutically acceptable salts with acids may be used orally in usual doses from 0.2 mg/kg body weight per day to about 250 mg/kg/day, most frequently from 5-50 mg/kg/day, or parenterally in the form of subcutaneous or intramuscular injections.

minimal inhibitory concentration (MIC) [µg/mL]	SMILES
1 (≈ 1.07 µM)	CCC1OC(=O)C(C)C(OC2CC(C)(OC)C(O)C(C)O2)C(C)C(OC2OC(C)CC(N(C)C)C2O)C(C)(O)CC(C)CN(C(=O)NS(=O)(=O)c2ccc(C)cc2)C(C)C(O)C1(C)O (stereo not shown) [Example 2, 9-Deoxo-9-dihydro-9a-N-[N′-(p-toluenesulfonyl)carbamoyl]-9a-aza-9a-homoerythromycin A]
1 (≈ 1.07 µM)	CCC1OC(=O)C(C)C(OC2CC(C)(OC)C(O)C(C)O2)C(C)C(OC2OC(C)CC(N(C)C)C2O)C(C)(O)CC(C)CN(C(=O)NS(=O)(=O)c2ccccc2C)C(C)C(O)C1(C)O (stereo not shown) [Example 3, 9-Deoxo-9-dihydro-9a-N-[N′-(o-toluenesulfonyl)carbamoyl]-9a-aza-9a-homoerythromycin A]
2 (≈ 2.18 µM)	CCC1OC(=O)C(C)C(OC2CC(C)(OC)C(O)C(C)O2)C(C)C(OC2OC(C)CC(N(C)C)C2O)C(C)(O)CC(C)CN(C(=O)NS(=O)(=O)c2ccccc2)C(C)C(O)C1(C)O (stereo not shown) [Example 4, 9-Deoxo-9-dihydro-9a-N-[N′-(benzenesulfonyl)carbamoyl]-9a-aza-9a-homoerythromycin A]

SMILES	minimal inhibitory concentration (MIC) [µg/mL]
CCC1OC(=O)C(C)C(OC2CC(C)(OC)C(O)C(C)O2)C(C)C(OC2OC(C)CC(N(C)C)C2O)C(C)(O)CC(C)CN(C(=O)NS(=O)(=O)c2ccc(Cl)cc2)C(C)C(O)C1(C)O (stereo not shown) [Example 1, 9-Deoxo-9-dihydro-9a-N-[N′-(4-chlorobenzenesufonyl)carbamoyl]-9a-aza-9a-homoerythromycin A]	2 (≈ 2.1 µM)
